Reference: paper PMC11421834 (European journal of medicinal chemistry, 2024)

Assays:
[1] = target: TRKC (Homo sapiens, UniProt Q16288); assay: TRKC enzyme assay, single concentration; conditions: Percentage inhibition at 0.5 μM (n = 2); ATP 10 μM
[2] = test system: over 400 kinases; assay: KinomeSCAN kinome profiling at 1 μM; assay type: binding; conditions: for >90: Number of kinases inhibited above 90%: KinomeSCAN at 1 μM across over 400 kinases
[3] = target: T1, FLT3 (Homo sapiens, UniProt P36888); assay: FLT3 enzyme assay, single concentration; conditions: read-out: FLT3 (% Inh.)
T1 sequence (P36888 27-993): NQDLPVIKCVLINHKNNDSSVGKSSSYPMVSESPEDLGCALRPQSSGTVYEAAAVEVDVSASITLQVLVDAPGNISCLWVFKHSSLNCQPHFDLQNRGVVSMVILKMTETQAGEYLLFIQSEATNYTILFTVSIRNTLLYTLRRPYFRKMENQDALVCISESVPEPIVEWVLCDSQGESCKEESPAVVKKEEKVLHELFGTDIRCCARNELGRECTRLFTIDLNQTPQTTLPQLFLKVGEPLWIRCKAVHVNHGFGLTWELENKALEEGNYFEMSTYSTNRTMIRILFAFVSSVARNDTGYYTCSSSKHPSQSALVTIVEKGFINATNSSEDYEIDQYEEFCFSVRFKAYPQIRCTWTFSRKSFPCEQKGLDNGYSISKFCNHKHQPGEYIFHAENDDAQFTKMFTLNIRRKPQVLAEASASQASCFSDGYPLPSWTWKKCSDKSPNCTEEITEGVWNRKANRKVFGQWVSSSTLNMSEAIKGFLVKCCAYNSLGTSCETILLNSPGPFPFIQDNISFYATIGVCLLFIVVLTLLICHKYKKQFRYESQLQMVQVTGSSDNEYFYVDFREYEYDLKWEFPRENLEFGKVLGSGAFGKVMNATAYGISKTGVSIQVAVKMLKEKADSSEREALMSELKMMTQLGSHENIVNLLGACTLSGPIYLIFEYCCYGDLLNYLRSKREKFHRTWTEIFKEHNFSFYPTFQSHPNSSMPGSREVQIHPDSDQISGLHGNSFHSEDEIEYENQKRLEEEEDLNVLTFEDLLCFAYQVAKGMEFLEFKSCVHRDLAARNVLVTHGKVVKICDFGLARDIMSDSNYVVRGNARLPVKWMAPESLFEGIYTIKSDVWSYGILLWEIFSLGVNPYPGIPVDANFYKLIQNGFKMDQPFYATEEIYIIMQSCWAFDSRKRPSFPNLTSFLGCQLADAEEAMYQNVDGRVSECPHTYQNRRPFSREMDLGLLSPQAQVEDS

Sequence of TRKC (Q16288 32-839): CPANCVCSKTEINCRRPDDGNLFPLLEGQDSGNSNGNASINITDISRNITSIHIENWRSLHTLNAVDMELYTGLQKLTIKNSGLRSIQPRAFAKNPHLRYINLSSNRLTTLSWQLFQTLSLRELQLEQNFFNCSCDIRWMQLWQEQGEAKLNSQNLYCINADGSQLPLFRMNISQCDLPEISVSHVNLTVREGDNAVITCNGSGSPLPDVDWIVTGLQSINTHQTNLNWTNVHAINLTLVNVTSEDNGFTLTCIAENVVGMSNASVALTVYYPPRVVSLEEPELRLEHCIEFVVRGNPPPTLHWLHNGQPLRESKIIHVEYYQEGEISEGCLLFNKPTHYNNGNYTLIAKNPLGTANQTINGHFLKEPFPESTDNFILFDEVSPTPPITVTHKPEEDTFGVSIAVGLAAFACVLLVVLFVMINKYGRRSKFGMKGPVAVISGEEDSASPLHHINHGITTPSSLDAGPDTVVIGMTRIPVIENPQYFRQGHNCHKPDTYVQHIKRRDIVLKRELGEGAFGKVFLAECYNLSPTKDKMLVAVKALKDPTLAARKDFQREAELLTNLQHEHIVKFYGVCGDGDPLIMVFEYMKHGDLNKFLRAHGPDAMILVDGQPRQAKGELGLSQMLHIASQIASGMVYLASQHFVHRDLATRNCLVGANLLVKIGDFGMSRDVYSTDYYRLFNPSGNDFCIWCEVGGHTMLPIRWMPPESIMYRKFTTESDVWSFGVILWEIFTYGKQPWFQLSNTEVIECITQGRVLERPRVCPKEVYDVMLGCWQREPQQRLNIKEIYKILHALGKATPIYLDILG

Molecule | >90: Number of kinases inhibited above 90% [2] | other results
3-ethoxy-N-[(3Z)-3-[(1H-imidazole-5-yl)methylidene]-2-oxo-2,3-dihydro-1H-indol-5-yl]thiophene-2-carboxamide [Compound 120] |  | TRKC (% Inh.) [1]: 92%
COc1ccc2c(c1)/C(=C/c1cnc[nH]1)C(=O)N2 [Compound 1, (3Z)-3-[(1H-imidazole-5-yl)methylidene]-5-methoxy-2,3-dihydro-1H-indol-2-one] | 15 | 
CC(=O)c1ccc2c(c1)/C(=C/c1ccc[nH]1)C(=O)N2 [Compound 27, (3Z)-5-acetyl-3-(1H-pyrrol-2-ylmethylidene)-2,3-dihydro-1H-indol-2-one] | 62 | S(10) ([2]; KinomeSCAN at 1 μM, selectivity score): 0.154
O=C1Nc2ccc(C(=O)c3ccccc3)cc2/C1=C/c1cnc[nH]1 [Compound 44, (3Z)-5-benzoyl-3-(1H-imidazole-5-ylmethylidene)-2,3-dihydro-1H-indol-2-one] | 15 | 
O=C1Nc2ccc(NC(=O)c3ccccc3)cc2/C1=C/c1ccc[nH]1 [Compound 72, N-[(3Z)-2-oxo-3-(1H-pyrrol-2-ylmethylidene)-2,3-dihydro-1H-indol-5-yl]benzamide] | 10 | 
O=C1Nc2ccc(NC(=O)c3ccccc3)cc2/C1=C/c1cnc[nH]1 [Compound 73, N-[(3Z)-3-(1H-imidazole-5-ylmethylidene)-2-oxo-2,3-dihydro-1H-indol-5-yl]benzamide] | 9 | 
O=C1Nc2ccc(NC(=O)c3ccccc3)cc2/C1=C/c1ncc[nH]1 [Compound 74, N-[(3Z)-3-(1H-imidazole-2-ylmethylidene)-2-oxo-2,3-dihydro-1H-indol-5-yl]benzamide] | 11 | 
COc1ccccc1C(=O)Nc1ccc2c(c1)/C(=C/c1ncc[nH]1)C(=O)N2 [Compound 97, N-[(3Z)-3-(1H-imidazole-2-ylmethylidene)-2-oxo-2,3-dihydro-1H-indol-5-yl]-2-methoxybenzamide] | 7 | 
O=C1Cc2cc(NC(=O)c3cc4sccc4s3)ccc2N1 [Compound 111] | 15 | 
COc1ccsc1C(=O)Nc1ccc2c(c1)/C(=C/c1cnc[nH]1)C(=O)N2 [Compound 119, (Z)-N-(3-((1H-imidazole-5-yl)methylene)-2-oxoindolin-5-yl)-3-methoxythiophene-2-carboxamide] |  | inhibition at 0.5 µM [3]: 80%
Cc1nc[nH]c1/C=C1\C(=O)Nc2ccc(NC(=O)c3ccccc3)cc21 [Compound 128, N-[(3Z)-3-[(4-methyl-1H-imidazole-5-yl)methylidene]-2-oxo-2,3-dihydro-1H-indol-5-yl]benzamide] | 11 | 
(3Z)-3-(1H-pyrazol-5-ylmethylidene)-2,3-dihydro-1H-indol-2-one [Compound 8] |  | TRKC (% Inh.) [1]: 92%
